Source: ChEMBL document CHEMBL5620419, “Discovery of new Lenalidomide derivatives as potent and selective GSPT1 degraders” (Eur J Med Chem, 2023)

Molecular target: Protein cereblon/Eukaryotic peptide chain release factor GTP-binding subunit ERF3A (Homo sapiens, UniProt P15170+Q96SW2)
Experiment: PROTAC activity at CRBN/GSPT1 in human U-937 cells assessed as degradation of GSPT1 measured after 6 hrs by Western blot analysis
Format: cell-based

Sequence of Protein cereblon/Eukaryotic peptide chain release factor GTP-binding subunit ERF3A (Q96SW2 whole entry): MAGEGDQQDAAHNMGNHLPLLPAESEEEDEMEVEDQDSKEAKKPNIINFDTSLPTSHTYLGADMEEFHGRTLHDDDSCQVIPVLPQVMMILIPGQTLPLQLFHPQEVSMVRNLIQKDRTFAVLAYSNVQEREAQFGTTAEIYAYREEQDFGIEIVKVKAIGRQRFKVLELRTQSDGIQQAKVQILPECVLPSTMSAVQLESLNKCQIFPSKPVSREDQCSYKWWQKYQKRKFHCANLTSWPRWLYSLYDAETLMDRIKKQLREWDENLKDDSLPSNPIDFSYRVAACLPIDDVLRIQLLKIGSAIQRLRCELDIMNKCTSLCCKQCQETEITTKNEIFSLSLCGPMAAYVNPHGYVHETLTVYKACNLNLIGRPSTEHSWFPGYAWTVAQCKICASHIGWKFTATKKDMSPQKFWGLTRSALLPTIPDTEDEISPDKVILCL
Sequence of Protein cereblon/Eukaryotic peptide chain release factor GTP-binding subunit ERF3A (P15170 whole entry): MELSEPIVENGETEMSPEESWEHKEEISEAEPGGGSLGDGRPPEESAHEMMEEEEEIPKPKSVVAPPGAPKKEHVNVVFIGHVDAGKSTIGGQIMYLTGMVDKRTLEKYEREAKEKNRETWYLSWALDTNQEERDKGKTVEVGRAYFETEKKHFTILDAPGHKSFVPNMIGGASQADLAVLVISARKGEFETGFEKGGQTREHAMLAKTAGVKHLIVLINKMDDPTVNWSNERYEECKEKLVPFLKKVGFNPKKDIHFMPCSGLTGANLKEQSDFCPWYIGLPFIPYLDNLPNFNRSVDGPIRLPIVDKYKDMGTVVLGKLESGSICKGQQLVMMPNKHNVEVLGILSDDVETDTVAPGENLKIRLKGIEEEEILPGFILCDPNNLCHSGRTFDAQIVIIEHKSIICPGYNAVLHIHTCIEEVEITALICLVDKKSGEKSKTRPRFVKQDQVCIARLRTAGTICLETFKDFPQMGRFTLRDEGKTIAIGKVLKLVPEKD

Cc1ccc(NC(=O)COc2ccc3c(c2)C(=O)N(C2CCC(=O)NC2=O)C3)cc1Cl (centres undefined)
EC50: > 10 µM

Cc1c(Cl)cc(NC(=O)CCc2ccc3c(c2)C(=O)N(C2CCC(=O)NC2=O)C3)cc1CN1CCN(C2CCOCC2)CC1 (centres undefined)
EC50: 0.251 µM

Cc1ccc(NC(=O)CNc2ccc3c(c2)C(=O)N(C2CCC(=O)NC2=O)C3)cc1Cl (centres undefined)
EC50: > 10 µM

Cc1ccc(NC(=O)/C=C/c2cccc3c2CN(C2CCC(=O)NC2=O)C3=O)cc1Cl (centres undefined)
EC50: 3.06 µM
